{
  "source": "patent US10274483B2",
  "about": "“Fluorescence method for sensing chlorinated disaccharides” (THE REGENTS OF THE UNIVERSITY OF CALIFORNIA, priority 2014, dated 2019)",
  "type_in_all_cases": "binding",
  "key": {"[1]": {"assay": "oBBV-HPTS two component fluorescence assay, sucralose", "description": "(§1) Urine has been analyzed for the permeability markers sucrose (stomach), lactulose and mannitol (small intestine) and sucralose (colon). The viologen oBBV was used with the fluorophore HPTS (Exc. 420 or 485 nm, Em 535 nm). Fluorescence was measured with a benchtop plate reader. HPTS is normally read at 420/535 nm, but performs well at 485/535 nm, matching FITC filter sets normally found in clinical labs. […] Lower limit of quantification (LLOQ) and dynamic range are suitable for typical urine samples.\n(§2) Developing a degradation pathway of sucralose into a saccharide that consists of the hydroxyl groups is needed for boronic acid recognition, which allows for the molecular recognition of sucralose. Sucralose contains halogenated carbons, which are easily modified via a hydroxyl anion or radical to de-chlorinate sucralose to form a detectable saccharide. Based on literature precedence, sucralose is modified through advanced oxidation photolysis to generate a fructose sugar alcohol derivative of sucrose (Ref 38). […] This has been accomplished by generating hydroxyl anion and radicals via the Fenton chemical reaction (Ref 39) in the presence of sucralose, and upon reaction completion, the modified sucralose solution was tested against the oBBV-HPTS system. Using the disclosed two component system, it is confirmed that sucralose is modified."}, "[2]": {"assay": "oBBV-HPTS two component fluorescence assay, sucrose", "description": "as §1, §2"}, "[3]": {"assay": "oBBV-HPTS two component fluorescence assay, Fenton-modified sucralose", "conditions": "sucralose after Fenton reaction, 1 hr; sodium phosphate and HEPES buffer, 0.01% Triton-X100, pH 7.4 (FIG. 4)", "description": "FIG. 4 is a graph showing the results of a proof of concept experiment to measure modified sucralose after 1 hr of reaction time. This study was performed with ortho bis boronic acid viologen (oBBV) in sodium phosphate and HEPES buffer 0.1M containing 0.01% Triton-X100, pH 7.4. The fluorescence intensity is the normalized intensity where F=fluorescence intensity after saccharide addition and Fo=fluorescence intensity of the quenched reporter dye.\nDeveloping a degradation pathway of sucralose into a saccharide that consists of the hydroxyl groups is needed for boronic acid recognition, which allows for the molecular recognition of sucralose. […]\nThis has been accomplished by generating hydroxyl anion and radicals via the Fenton chemical reaction (Ref 39) in the presence of sucralose, and upon reaction completion, the modified sucralose solution was tested against the oBBV-HPTS system. Using our two component system, we have confirmed that sucralose can be modified and measured by adding increasing amounts of this modified saccharide, a significant fluorescence signal was obtained.\nA solution of sucralose (20 mM) in the presence of ferrous iron (II) sulfate and hydrogen peroxide was allowed to stir for 1 hour and dilutions were made to determine if a fluorescence signal can be obtained. […]"}, "[4]": {"assay": "oBBV-HPTS two component fluorescence assay, mannitol", "source_text": "(§3) Boronic acids form covalent bonds with the cis-1, 2-hydroxyl groups that are commonly found in saccharides. Based on this property, a two-component sensing system is developed, comprising a fluorescent dye that serves as the indicator unit and a boronic acid-appended viologen that serves a dual function as fluorescence quencher and saccharide receptor. Dye and viologen form a non-fluorescent ground state complex. Binding to a diol weakens the complex. Subsequent dissociation from the fluorescent dye results in an increase in fluorescence dependent on diol concentration.\nas §1"}, "[5]": {"assay": "oBBV-HPTS two component fluorescence assay, lactulose", "source_text": "as §3, §1"}, "[6]": {"conditions": "fluorophore HPTS, urine, Exc. 420 or 485 nm, Em 535 nm (FIG. 3)"}},
  "data": [
    {"compound": "OB(O)c1ccccc1C[n+]1ccc(-c2cc[n+](Cc3ccccc3B(O)O)cc2)cc1.[Br-].[Br-]", "note": "[oBBV, 4,4′-N,N′-bis-(benzyl-2-boronic acid)-dipyridinium dibromide]", "values": [
      {"measurement": "fluorescence signal with sucralose", "setting": "[1]; unmodified, tested in parallel with modified sucralose (FIG. 4)", "result": "no obtainable signal"},
      {"measurement": "de-quenching of HPTS fluorescence in the presence of sucralose", "setting": "[1]; urine (FIG. 3)", "result": "not"},
      {"measurement": "fluorescence signal with sucrose", "setting": "[2]; tested in parallel with modified sucralose (FIG. 4)", "result": "no obtainable signal"},
      {"measurement": "de-quenching of HPTS fluorescence in the presence of sucrose", "setting": "[2]; urine (FIG. 3)", "result": "not"},
      {"measurement": "fluorescence signal on adding increasing amounts of modified sucralose", "setting": "[3]", "result": "increase in fluorescence signal"},
      {"measurement": "sensitivity to mannitol", "setting": "[4]; [6]", "result": "good sensitivity"},
      {"measurement": "de-quenching of HPTS fluorescence in the presence of mannitol", "setting": "[4]; urine (FIG. 3)", "result": "selectively de-quenched"},
      {"measurement": "sensitivity to lactulose", "setting": "[5]; [6]", "result": "greatest preferential sensitivity"},
      {"measurement": "de-quenching of HPTS fluorescence in the presence of lactulose", "setting": "[5]; urine (FIG. 3)", "result": "selectively de-quenched"}
    ]}
  ]
}
